Experimental data from patent publication US20150299660A1, “DIFFERENTIATION OF HUMAN FIBROBLAST CELLS” (International Stem Cell Corporation, priority 2012, published 2015).

Assays:
human fibroblast cells = test: Differentiation of human fibroblast cells into adipocytes (lipid accumulation, Oil Red O); type: cell-based; conditions: Troglitazone in combination with other elements
Method: Fibroblast cells were grown in FibroLife S2 on standard tissue culture-treated plastic. Fibroblasts cells were plated at 20,000 cells/cm^2 and allowed the cells to grow to confluence (roughly 80,000 cells/cm^2) in approximately 2 days. Once the cells reached confluence the cell culture media was changed to AdipoLife Complete DifFactor 1 media. The cell culture media continued to be changed every 2 days. After 4 days the cell culture media was changed to AdipoLife Complete DifFactor 2 media for 17 days. Lipid accumulation was visible after 5 days culture in the AdipoLife Complete DifFactor 2 media. After 3 weeks of culture the cells were stained with Oil Red O stained to assay for accumulated lipids

[1] = system: MSC which have undergone osteogenesis; test: Calcium / matrix deposition by MSC which have undergone osteogenesis, complex sugars in the media; type: cell-based; conditions: sugar in the media
Source text: (§1) As used herein, the terms “complex sugar” and “complex sugars” includes monomeric and polymeric sugar chains. The use of sugars as a supplement enhancing extracellular matrix deposition is a unique aspect to the present invention. They can also be specific for cell type. As an example, previous studies have shown mesenchymal stem for chondrogenesis using a similar formulation as disclosed in the present invention, but without glucosamine sulfate. […] In a surprising aspect the present invention discloses that the use of certain complex sugars in the media massively increases the accumulation of calcium derived from osteocytes while the use of other sugars actively suppresses the accumulation of calcium. […] Fibroblasts allowed to acquire a MSC like state require galactose, glucuronic acid and glucosamine sulfate for cartilage formation, while hyaluronic acid will repress it. Examples of sugars are hyaluronic acid, galactose, glucosamine sulfate, glucuronic acid, mannose, sialic acid, chondroitin sulfate and galactosamine.

[2] = system: MSC which have under gone chondrogenesis; test: Cartilage / matrix formation by MSC which have undergone chondrogenesis, complex sugars in the media; type: cell-based; conditions: sugar in the media
Source text: as §1

[3] = system: Fibroblasts allowed to acquire a MSC like state; test: Cartilage formation by fibroblasts allowed to acquire a MSC like state, complex sugars in the media; type: cell-based; conditions: sugar in the media
Source text: as §1
Fibroblast cells were grown in FibroLife S2 on standard tissue culture-treated plastic. Fibroblasts cells were plated at 20,000 cells/cm^2 and allowed the cells to grow to 80-90% confluence actively proliferating.
The cells were centrifuged and the cells resuspended at 2.5×10^7 cells/ml in 1.5% alignate solution. The cells in the alignate solution are loaded into a syringe and applied to a stirred 100 mM calcium chloride solution to form microbeads. After 10 minutes, the calcium chloride solution was removed and the microbeads transferred to a 48 well plate. The microbeads were washed twice with 0.5 ml ChondroLife Chondrogenesis media (Table 7). The plates were incubated at 37° C., 5% CO2. The media was changed every 2-3 days for 3 weeks.
To examine the growth of the chondrocytes, the microbeads were fixed, frozen in OCT compound, cut in 5 μM sections and mounted on glass slides. The microbeads were stained with Alcian Blue to detect the presence of sulfated proteoglycans.

mesenchymal stem cells = conditions: shown previously; cited from earlier work
fibroblasts = conditions: has been shown; cited from earlier work

Row | Compound | surface of the human cell culture covered with lipid-accumulating cells (human fibroblast cells) [%] | effect on calcium deposition / matrix formation [1] | effect on cartilage formation / matrix deposition [2] | effect on cartilage formation [3] | effect on matrix secretion (mesenchymal stem cells) | effect on matrix deposition (fibroblasts)
1 | Cc1c(C)c2c(c(C)c1O)CCC(C)(COc1ccc(CC3SC(=O)NC3=O)cc1)O2 (centres unmarked) [Troglitazone] | ≥ 70 |  |  |  |  | 
2 | O=C[C@H](O)[C@@H](O)[C@@H](O)[C@H](O)CO [galactose] |  | vastly increased amounts of calcium deposition | vastly augments cartilage formation | require |  | 
3 | N[C@H]1C(O)O[C@H](CO)[C@@H](O)[C@@H]1O.O=S(=O)(O)O (some centres unmarked) [glucosamine sulfate] |  | vastly increased amounts of calcium deposition | repress matrix deposition | require | detrimental to matrix secretion | 
4 | O=C[C@H](O)[C@@H](O)[C@H](O)[C@H](O)C(=O)O [glucuronic acid] |  |  | vastly augments cartilage formation | require |  | 
5 | hyaluronic acid |  | vastly increased amounts of calcium deposition | vastly augments cartilage formation | repress it |  | detrimental to matrix deposition
